# Reference: US12594282B2, “Use of small molecule compounds in the treatment of diseases mediated by lung epithelial cell injury and/or vascular endothelial cell injury” (Guangzhou Cellprotek Pharmaceutical Co., Ltd., priority 2020, dated 2026)
# System: acute hypobaric hypoxia-induced lung injury
# Assay: Acute hypobaric hypoxia-induced lung injury in Macaca fascicularis (HE pathology)
# Format: in vivo
# Conditions: 7500 meters for 48 hours
# Procedure: Twenty-four healthy male Macaca fascicularis, 6 to 6.5 years-old, weighted 6.5-7.5 kg, were purchased from Kangda Laboratory Animal Center, Gaoyao City, Guangdong, China, in which 17 male Macaca fascicularis were divided into 3 groups, as shown in the following table:
# Three Macaca fascicularis housed in the animal room were randomly selected each time. For each animal, 10 ml of blood was collected, and 10 ml of glucose normal saline was injected intravenously, and marked. The animals were then housed in a low-pressure chamber for 1 day to acclimate to the experimental environment. In the acute hypobaric hypoxia group, the altitude was simulated to 3000 meters at a speed of 3 m/s; after the animals stayed in the low-pressure chamber at a simulated altitude of 3000 meters for 30 minutes, 10 ml of blood was taken from each animal and 10 ml of glucose saline was injected intravenously; the altitude was then simulated to 4500 meters at a speed of 3 m/s; after the animals stayed in the low-pressure chamber at a simulated altitude of 4500 meters for 30 minutes, 10 ml of blood was taken from each animal and 10 ml of glucose saline was injected intravenously; the altitude was simulated to 6000 meters at a speed of 3 m/s; after the animals stayed in the low-pressure chamber at a simulated altitude of 6000 meters for 30 minutes, 10 ml of blood was taken from each animal and 10 ml of glucose saline was injected intravenously; the altitude was simulated to 7500 meters at a speed of 2 m/s; after the animals stayed at a simulated altitude of 7500 meters in the low-pressure chamber for 24 hours, the altitude was lowered to 6000 meters at a speed of 3 m/s, and 10 ml of blood was taken from each animal and 10 ml of glucose saline was injected intravenously; the altitude was simulated to 7500 meters at a speed of 2 m/s; after staying at 7500 meters for 48 hours, the altitude was lowered to 6000 meters at a speed of 3 m/s, the animals were anesthetized (0.06 ml/kg ketamine hydrochloride injection, 0.02 ml/kg xylazine hydrochloride injection), and sacrificed by carotid bloodletting, and dissected and subject to sampling, and the samples were then fixed. The Macaca fascicularis in the normobaric normoxia control group were anesthetized (0.06 ml/kg ketamine hydrochloride injection, 0.02 ml/kg xylazine hydrochloride injection) in the plain (an altitude of 352 meters), then sacrificed by carotid bloodletting, and dissected and subject to sampling, and the samples were then fixed. […]
structure (smiles),measurement,setting,value
"C[C@@]12CCCC1C1C[C@@H](O)[C@]3(O)C[C@@H](O)CC[C@]3(C)C1CC2 (stereo partly drawn) [YC-6, 5α-androst-3β,5,6β-triol]",alveolar septal thickening caused by acute hypobaric hypoxia,100 mg/kg/two days (i.v. solution and i.m. sustained-release formulation),significantly reduced the alveolar septal thickening injury
same,"fibrous hyperplasia of alveolar septa, protein hyaline membrane formation and erythrocyte leakage into the alveolar space",100 mg/kg/two days,no such obvious changes were observed
same,inflammatory infiltration and shedding of damaged lung epithelial cells,100 mg/kg/two days,no obvious inflammatory infiltration and shedding of damaged lung epithelial cells were observed
same,pulmonary vascular congestion and swelling,100 mg/kg/two days,significantly inhibited pulmonary vascular congestion and swelling
